We go through three compounds from patent EP0936918B1, “COMBINATION THERAPY FOR TREATMENT OF ARTHRITIC DISEASES” (BRITISH BIOTECH PHARMACEUTICALS LIMITED, priority 1996, dated 1998).

Data set [1] in a line: Ex vivo bioassay of blood concentration after oral administration (fibroblast collagenase / 14C collagen read-out). The arrangement: species or system male Lewis rats. As to conditions: 10mg/kg oral, suspension in PBS/Tween, with versus without CyA (0.3mg/kg); 0.5 to 24 hrs, n=6. As to the method: Compound 1(10mg/kg)±CyA (0.3mg/kg) [in PBS/0.01% Tween 80™] was administered to healthy male Lewis rats (as above). Blood samples (0.5ml into a syringe containing 0.1 ml acid citrate dextroset as anticoagulant) were removed from the ventro-lateral tail vein of the halothane anaestetised rat at t= prebleed, 0.5, 1, 2, 6 and 24 hrs. 3mls methanol was added to each blood sample, mixed and centrifuged at 3000 r.p.m. for 15 minutes (using Beckman GPKR centrifuge). 2.0ml of the methanol supematant was removed and evaporated dry. The pellet was redisolved in 200µl DMSO (dimethylsulphoxide). An aliquot of the solubilised pellet was assayed against fibroblast collagenase using ^14C collagen as substrate, as follows: 15µl fibroblast collagenase at suitable dilution. 100µl collagenase assay buffer* 10µl solubilised pellet 75µl ddH2O 100µl ^14C collagen † Acid citrate dextrose, pH4.5 (13.65g citric acid, 25g tri-sodium citrate & 20g d-glucose per litre of water) * (50mM Tris (pH 7.4), 5mM CaCl2, 0.05% Brij, 0.02% NaN3)
Samples were incubated overnight at 37°C and undigested substrate removed by centrifugation at 11,600 r.p.m. for 15 mins (using Heraeus Biofuge 15). […]
A calibration curve for the test compound of interest was run alongside the blood samples. The concentration of the test compound in the blood was then calculated from the calibration curve.

The subject of data set [2] is adjuvant-induced arthritis. The data set can be described thus: Rat adjuvant-induced arthritis model. Format: in vivo, male Lewis rat. The protocol: Mean of 10 readings was recorded.
Drugs were formulated fresh for each administration.

The conditions of data set [3]: Twentyman 1992; cited from earlier work.

In the case of `C=CC[C@H](C(=O)NO)[C@@H](CC(C)C)C(=O)N[C@H](C(=O)NC)C(C)(C)C` [Compound 1, 3R-(2,2-Dimethyl-1S-methylcarbamoyl-propylcarbamoyl)-5-methyl-2S-2-propenyl-hexanohydroxamic acid], the “blood concentration of Compound 1” value in data set [1] is reported as “equivalent”. The “reducing the paw volume (swelling)” value in data set [2] (Compound 1 at doses at or below 10mg/kg, po, bid (data not shown)) was “ineffective”. In data set [2] (given alone, po, bid: Compound 1 (10mg/ml), Cyclosporin A (0.3mg/ml)), the effect on arthritis entry is “very little or no effect”.

On to `CNC(=O)[C@H](Cc1ccccc1)NC(=O)[C@H](CC(C)C)[C@H](CSc1cccs1)C(=O)NO` [Compound 2, [4-(N-Hydroxyamino)-2R-isobutyl-3S-(thiophenylthiomethyl)succinyl]-L-phenylalanine-N-methylamide], for which the “synergy with cyclosporin A” value in data set [2] (Compound 2 at 5mg/kg ip, bid, with cyclosporin A at 0.3mg/kg ip) was “act in synergy”.

Turning to `C/C=C/C[C@@H](C)C(=O)[C@H]1C(=O)N[C@@H](C(C)C)C(=O)N(C)CC(=O)N(C)[C@@H](CC(C)C)C(=O)N[C@@H](C(C)C)C(=O)N(C)[C@@H](CC(C)C)C(=O)N[C@@H](C)C(=O)N[C@H](C)C(=O)N(C)[C@@H](CC(C)C)C(=O)N(C)[C@@H](CC(C)C)C(=O)N(C)[C@@H](C(C)C)C(=O)N1C` [PSC-833], the “potency relative to CyA” value in data set [3] was “approximately 10 fold”.
